Experimental data as given in US11390602B2, “N-alkyl-N-cyanoalkylbenzamide compound and use thereof” (JIANGSU FLAG CHEMICAL INDUSTRY CO., LTD., priority 2017, dated 2022).
Like-named read-outs stand apart in the source and are kept apart here.

System: Plutella xylostella
Test: Insecticidal effect on Plutella xylostella (leaf disc immersion)
Format: in vivo
Details: foliar, 72 h, read-out: insecticidal activity on Plutella xylostella (mortality %)
Description: The test reagents were all dissolved in a mixed solvent of acetone:N′N′-dimethylcarboxamide (1:1) to give a 1000 mg/L solution. 1% Tween-80 was added as an emulsifier to each solution. These solutions were then diluted with 1% Tween-20 solution in water to give desired concentrations of test solutions. An aqueous solution containing 1% Tween-20 was used as a control.
Third instar larvae of Plutella xylostella were used. Cabbages were washed, air dried, punched into leaf discs, immersed in reagent solutions for 10 sec, taken out, naturally dried and then placed in a Petri dish. 10 third-instar larvae of Plutella xylostella were inoculated to each Petri dish, and three replicates were set. The number of deaths in 3 days was investigated, and the mortality was calculated.

[1] = concentration 0.05 ppm, third instar larvae, 3 days
[2] = concentration 0.5 ppm, third instar larvae, 3 days

CN(C(=O)c1cc(Cl)cc(Cl)c1NC(=O)c1cc(Br)nn1-c1ncccc1Cl)C(C)(C)C#N [Compound 1.15, N-(6-N-((2-cyanopropan-2-yl)-N-methylcarbamoyl)-2,4-dichlorophenyl)-1-(3-chloropyridin-2-yl)-3-bromo-1H-pyrazol-5-carboxamide]
mortality at 0.01 ppm: 66.7%
mortality at 0.05 ppm: 86.7%
mortality at 0.5 ppm: 100%

Cc1cc(Cl)cc(C(=O)NC(C)(C)C#N)c1NC(=O)c1cc(Br)nn1-c1ncccc1Cl [KC1]
mortality at 0.05 ppm [1]: 45.7%
mortality at 0.5 ppm [2]: 71.9%

CC(C)(C#N)NC(=O)c1cc(Cl)cc(Cl)c1NC(=O)c1cc(Br)nn1-c1ncccc1Cl [KC2]
mortality at 0.01 ppm (concentration 0.01 ppm, third instar larvae, 3 days): 28.1%
mortality at 0.05 ppm [1]: 51.4%
mortality at 0.5 ppm [2]: 88.2%
